Experimental data: article PMC12591484 (PLOS One, 2025)

Experiments:
Experiment in all cases: Drug protection from pCMBS modification (SCAMP)
Type in all cases: cell-based
Design in all cases: key: +: Mutant-function studies are deemed positive when bulky mutations (mostly tryptophans) at the site significantly reduce positive modulation by anesthetics; -: Negative results are indicated by “–“ symbols
[1] = target: T1, α1S270Cβ3γ2L GABAA receptors (Homo sapiens, UniProt P14867+P18507+P28472, S297C); settings: results of this study (*)
T1 construct: expressed in transfected cells; host or cells: Xenopus oocytes injected with capped mRNA, 1α:1β:5γ
Protocol: (§1) Experiments were performed in ND-96 buffer at room temperature (20–22°C). Oocytes were placed in a low-volume (30µl) flow chamber and impaled with borosilicate microelectrodes filled with 3M KCl (resistance 0.5–3 MΩ) and voltage-clamped at −50 mV (model OC-725C; Warner Instruments, Hamden, CT, USA). Superfusate solutions in ND-96 were delivered at 2 ml/min from glass syringe reservoirs via computer-controlled valves (VC-8; Warner Instruments), a micro-manifold (ALA-VM8; ALA Scientific Instruments, Farmingdale, NY, USA), and PTFE tubing. Currents were digitized at 200 Hz on a computer running ClampEx v8.0 software (Molecular Devices, San Jose, CA, USA). Digitized traces were filtered with a 10-Hz low-pass Bessel function, leak corrected and analyzed for peak amplitude off-line using Clampfit v8 software (Molecular Devices).
(§2) Drug protection from pCMBS modification was assessed under pCMBS exposure conditions that produced approximately half of the maximal modification ratio for each mutant receptor, and a least a value of 3. This approach balanced the magnitude of functional modification signals (smaller with less pCMBS exposure) against the challenge of using a reversibly bound ligand to competitively block an irreversible covalent cysteine-modifying reaction. […] Each oocyte was used in a single SCAMP experiment. […] Etomidate was used as a positive control for anesthetic protection in α1M236C and β3M286C mutants and as a negative control in α1S270C, α1A291C, β3L231C, γ2S301C, γ2I242C, and γ2L246C mutants. R-mTFD-MPAB was used as a positive control in α1S270C, α1A291C, β3L231C, and γ2LS301C mutants and as a negative control in α1M236C and β3M286C mutants. For each cysteine mutant and protective drug combination, five oocytes were studied.
(§3) Non-linear least squares fits and statistical analyses were performed in Prism 10.4.0. (GraphPad Software, San Diego, CA, USA). […] Protection (steric inhibition of pCMBS modification) was inferred when anesthetics produced significant reductions in modification ratios relative to control (no anesthetic) values. The statistical significance threshold was p < 0.05.

[2] = target: T2, α1β3γ2S301C GABAA receptors (Homo sapiens, UniProt P14867+P18507+P28472, S340C); settings: results of this study (*)
T2 construct: expressed in transfected cells; host or cells: Xenopus oocytes injected with capped mRNAs mixed 1α:1β:5γ
T2 sequence (P14867 28-456): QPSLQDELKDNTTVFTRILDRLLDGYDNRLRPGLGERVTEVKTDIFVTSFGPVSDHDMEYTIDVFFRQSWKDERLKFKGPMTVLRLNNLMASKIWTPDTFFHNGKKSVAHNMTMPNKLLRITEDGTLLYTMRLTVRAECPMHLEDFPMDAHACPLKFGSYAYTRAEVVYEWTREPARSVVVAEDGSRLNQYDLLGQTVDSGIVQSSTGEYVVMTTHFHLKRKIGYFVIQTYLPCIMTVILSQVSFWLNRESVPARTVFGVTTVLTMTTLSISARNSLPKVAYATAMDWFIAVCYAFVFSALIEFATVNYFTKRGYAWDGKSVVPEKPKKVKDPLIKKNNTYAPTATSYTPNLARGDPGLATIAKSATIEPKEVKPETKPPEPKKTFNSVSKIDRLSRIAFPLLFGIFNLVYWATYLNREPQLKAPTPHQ
T2 sequence (P28472 26-473): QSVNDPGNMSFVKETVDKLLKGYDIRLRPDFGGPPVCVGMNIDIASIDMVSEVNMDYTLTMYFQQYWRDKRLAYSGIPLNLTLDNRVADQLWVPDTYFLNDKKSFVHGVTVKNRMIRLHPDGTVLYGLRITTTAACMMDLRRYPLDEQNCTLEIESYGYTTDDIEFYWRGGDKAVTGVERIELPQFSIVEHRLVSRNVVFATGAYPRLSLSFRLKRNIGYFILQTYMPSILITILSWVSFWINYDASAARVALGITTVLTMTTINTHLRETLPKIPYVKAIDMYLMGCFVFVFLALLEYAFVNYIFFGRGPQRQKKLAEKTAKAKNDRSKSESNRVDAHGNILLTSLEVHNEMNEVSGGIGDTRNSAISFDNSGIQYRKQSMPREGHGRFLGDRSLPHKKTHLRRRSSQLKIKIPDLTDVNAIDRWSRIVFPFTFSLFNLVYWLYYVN
T2 sequence (P18507 40-475 S340C): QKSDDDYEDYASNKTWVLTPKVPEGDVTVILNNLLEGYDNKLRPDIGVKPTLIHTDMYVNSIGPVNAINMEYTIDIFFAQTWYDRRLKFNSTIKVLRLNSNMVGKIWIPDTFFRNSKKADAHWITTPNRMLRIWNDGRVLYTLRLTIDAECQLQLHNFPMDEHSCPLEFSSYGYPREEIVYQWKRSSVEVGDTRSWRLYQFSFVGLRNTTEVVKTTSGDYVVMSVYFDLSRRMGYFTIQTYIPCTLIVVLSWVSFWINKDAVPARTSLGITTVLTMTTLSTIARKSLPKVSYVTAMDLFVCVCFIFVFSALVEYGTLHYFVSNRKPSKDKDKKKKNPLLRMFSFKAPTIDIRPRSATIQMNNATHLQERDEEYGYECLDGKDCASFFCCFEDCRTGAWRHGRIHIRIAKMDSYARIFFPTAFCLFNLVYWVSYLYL
Protocol: as §1, §2, §3

[3] = target: T3, α1M236Cβ3γ2L GABAA receptors (Homo sapiens, UniProt P14867+P18507+P28472, M263C); settings: results of this study (*); some cells also cite [9]
T3 construct: expressed in transfected cells; host or cells: Xenopus oocytes injected with capped mRNA, 1α:1β:5γ
Protocol: as §1, §2, §3

T3 sequence (P14867 28-456 M263C, one chain of several): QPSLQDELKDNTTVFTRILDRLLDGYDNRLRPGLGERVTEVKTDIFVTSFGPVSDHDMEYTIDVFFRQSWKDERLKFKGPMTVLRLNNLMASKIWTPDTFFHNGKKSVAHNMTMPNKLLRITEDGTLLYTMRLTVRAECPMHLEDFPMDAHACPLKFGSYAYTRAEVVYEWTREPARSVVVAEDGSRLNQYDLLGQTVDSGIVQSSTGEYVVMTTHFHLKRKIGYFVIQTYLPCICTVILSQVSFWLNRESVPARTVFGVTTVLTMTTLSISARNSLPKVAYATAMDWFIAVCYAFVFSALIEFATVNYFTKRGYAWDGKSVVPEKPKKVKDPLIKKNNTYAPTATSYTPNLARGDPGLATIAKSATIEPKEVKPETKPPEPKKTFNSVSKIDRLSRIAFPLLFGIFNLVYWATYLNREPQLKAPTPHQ
T3 sequence (P18507 40-475, one chain of several): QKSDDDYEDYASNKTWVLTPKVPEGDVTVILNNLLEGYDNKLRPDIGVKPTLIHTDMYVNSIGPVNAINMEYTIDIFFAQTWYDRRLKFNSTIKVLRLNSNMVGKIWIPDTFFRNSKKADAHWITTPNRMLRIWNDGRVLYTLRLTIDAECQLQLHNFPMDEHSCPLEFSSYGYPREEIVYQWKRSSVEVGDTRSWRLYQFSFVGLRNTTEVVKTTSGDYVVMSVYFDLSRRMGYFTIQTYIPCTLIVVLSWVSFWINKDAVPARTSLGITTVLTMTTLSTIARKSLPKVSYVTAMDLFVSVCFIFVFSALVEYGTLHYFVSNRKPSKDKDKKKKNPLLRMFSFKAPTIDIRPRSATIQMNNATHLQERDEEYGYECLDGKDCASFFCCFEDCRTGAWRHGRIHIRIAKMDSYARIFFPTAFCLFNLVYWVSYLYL
T1 sequence (P14867 28-456 S297C, one chain of several): as the sequence (P14867 28-456 M263C, one chain of several) above, with C236M, S270C counted along it
T1 sequence (P18507 40-475, one chain of several): as the sequence (P18507 40-475, one chain of several) above

## CCOC(=O)c1cncn1[C@H](C)c1ccccc1 [etomidate, R-etomidate]
[1]
  SCAMP result, α1+ (M2, M3) S270: -*
[2]
  SCAMP result, γ2+ (M2, M3) S301: -*

## CC(C)c1cc(C2(C(F)(F)F)N=N2)cc(C(C)C)c1CO [pTFD-di-iPr-BnOH]
[3]
  SCAMP result, α1– (M1) M236: -*
[1]
  SCAMP result, α1+ (M2, M3) S270: -*
[2]
  SCAMP result, γ2+ (M2, M3) S301: -*

## C=CCC1(c2cccc(C3(C(F)(F)F)N=N3)c2)C(=O)NC(=O)N(C)C1=O (stereo not drawn) [R-mTFD-MPAB, R-5-allyl-1-methyl-5-(m-trifluoromethyl-diazirynylphenyl) barbituric acid]
[3]
  SCAMP result, α1– (M1) M236: -^[9], *
